This note sets out measurements from PubChem BioAssay (NCI).

Each structure is given as a SMILES string.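 Exposure lasted 48 hours, with cells grown in 96-well plates and compounds tested at five concentrations. Here, GI50 denotes the concentration required for 50% inhibition of growth. TGI marks complete inhibition of growth.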 A value given as a limit tells only on which side of the number the result lay.

In this test the test system is MDA-MB-468 breast. The test is described as follows: NCI-60 cell line screen, 48 h.
Regarding `O=[N+]([O-])c1cc[n+]([O-])c2ccccc12`, the GI50 was 135 nM and the TGI amounted to 324 nM.

In the case of `COc1ccc(-c2cc(=O)n(-c3nc4ccccc4[nH]3)[nH]2)cc1OC`, the GI50 was 4300 nM and the TGI was 44700 nM. The like results for `c1ccc(-c2nn3c(c2-c2ccnc4cc(OCCN5CCOCC5)ccc24)CCC3)nc1` were, in that order, 30900 nM and > 100000 nM. On the same counts, the results for `COC(=O)c1c2c(c(C)[n+]([O-])c1C)C(=O)C=C(NCc1ccccc1)C2=O` are 266 nM and 1140 nM. In the case of `C=C1C(=O)O[C@H]2[C@H]1CC/C(COC(=O)CCCCCC(=O)OC/C1=C/CC[C@@]3(C)O[C@H]3[C@H]3OC(=O)C(=C)[C@@H]3CC1)=C\CC[C@@]1(C)O[C@@H]21`, the GI50 is 1840 nM and the TGI came out at 7100 nM. On the same counts, the results for `CCOc1ccc2c(-c3ccnc(Nc4cc(OC)cc(C(F)(F)F)c4)n3)cnn2n1` are 836 nM and > 20500 nM. Regarding `N#Cc1nc(-c2ccc(F)cc2)oc1S(=O)(=O)N1CCCCC1`, the GI50 is 1640 nM and the TGI came out at 3300 nM. Turning to `CCCCNNC(=O)c1ccc(Br)cc1`, the GI50 is 1710 nM and the TGI was > 50000 nM. For `Cc1cn2c(/C=C3/C(=O)Nc4c3ccc3ccccc43)c(C(F)(F)F)nc2s1`, the GI50 is 1460 nM and the TGI was > 100000 nM. The like results for `O=C(NCCN1CCOCC1)OCc1nc2nc(Cl)nc(N3CCOCC3)c2[nH]1` were, in that order, 375 nM and 3790 nM. On to `Cc1cc2ncc(-c3cc4ccccc4c(N4CCN(C)CC4)n3)nc2cc1C`, for which the GI50 was 2120 nM and the TGI is 5110 nM. On the same counts, the results for `CN(C)c1ccc(Nc2c3ccccc3nc3ccccc23)cc1` are 632 nM and 2110 nM.

For the molecule `C=C(C)[C@@H]1CC[C@]2(COP(=O)(OCC)OCC)CC[C@]3(C)[C@H](CC[C@@H]4[C@@]5(C)CCCNC(C)(C)[C@@H]5CC[C@]43C)[C@@H]12`, the GI50 is 1390 nM and the TGI came to 2910 nM. On the same counts, the results for `NC(=N\N=C/c1ccc(O)cc1)/C(N)=N\N=C/c1ccc(O)cc1` are > 100000 nM and > 100000 nM.

Turning to `CN(C)C(=O)Nc1nc2cc(Cl)c(Cl)cc2[nH]1`, the GI50 was 537 nM and the TGI is > 91000 nM. On the same counts, the results for `CCCCCCCCCCCC1=NC(C)(C)CN1C(C)(C)CO` are 1820 nM and 3670 nM. The like results for `C=CC(=O)N1CCC(c2ccc(C(N)=O)c(-c3ccc(Oc4ccccc4)cc3)n2)CC1` were, in that order, 5760 nM and 49500 nM. On to `COc1ccc2c(c1)nc(NNC(=O)c1cnccn1)c1cccn12`, for which the GI50 was 227 nM and the TGI came to 1660 nM. The like results for `COc1c(C(C)=O)c(OCCCCOc2c(C(C)=O)c(OC)c3ccoc3c2OC)c(OC)c2occc12` were, in that order, 2310 nM and > 100000 nM. On the same counts, the results for `CNC(=O)NCC1OC(n2cnc3c(NC(=O)Nc4ccccc4)ncnc32)C(O[Si](C)(C)C(C)(C)C)C1O[Si](C)(C)C(C)(C)C` (configuration not stated) are 3350 nM and 13900 nM. As for `COc1cccc2c1C=CC1(O2)Oc2cccc(OC)c2C=C1C` (configuration not stated), the GI50 is 402 nM and the TGI is > 100000 nM. On the same counts, the results for `O=C(Nc1ccc(F)c(F)c1)c1cc(-c2ccc(F)cc2F)ccc1O` are 1120 nM and 4350 nM. The like results for `O=C(O)C[C@H](O)C[C@H](O)/C=C/c1c(C2CC2)nc2ccccc2c1-c1ccc(F)cc1` were, in that order, 2370 nM and 12100 nM.

As to `CCn1c(=O)c2nc(SC)sc2n(-c2ccc(C)cc2)c1=O`, the GI50 was 62000 nM and the TGI is > 100000 nM. The like results for `O=C(CCN1CCCC1)Nc1ccc2c(NCc3ccccc3)c3ccccc3nc2c1` were, in that order, 274 nM and 1060 nM. On the same counts, the results for `COc1ccc(/C=C(/c2ccccc2)[N+](=O)[O-])c(OC)c1` are 1510 nM and 3400 nM. The like results for `COc1ccc([C@H](CC(=O)O)N2CCN(CCCc3ccc4c(n3)NCCC4)C2=O)cn1` were, in that order, 111 nM and 479 nM. On to `CC1=CC2C(C(O)CC3(C)C2CC(C)C32OCOC23COCO3)C2(C)C/C(=C/O)C(=O)C=C12` (configuration not stated), for which the GI50 was 1790 nM and the TGI was 3470 nM. With `CC(C)(C)c1ccc(C(O)CCCN2CCC(C(O)(c3ccccc3)c3ccccc3)CC2)cc1` (configuration not stated), the GI50 was 1150 nM and the TGI stood at 2450 nM. On the same counts, the results for `Cc1ccc(/C=C(\C#N)c2cc3ccccc3n2C)cc1` are 406 nM and > 100000 nM. The like results for `Cc1ccc(S(=O)(=O)Oc2ccc3c4c(c(=O)oc3c2)CCCCCC4)cc1` were, in that order, 2040 nM and > 100000 nM. `COc1ccc(C(=O)Cn2c(C(=O)c3ccccc3)nc3ccccc32)cc1`: the GI50 is 817 nM and the TGI amounted to 5770 nM. On the same counts, the results for `Cc1ccc(/C=C/c2c(C(=O)/C=C/c3ccccc3)c(C)nc3ccccc23)cc1` are 1800 nM and 3470 nM.

With `Cc1ccc2nc3ccccc3c(NCc3ccc(Cl)cc3)c2c1`, the GI50 is 1630 nM and the TGI came to 6380 nM. On the same counts, the results for `Fc1ccc(-c2ncn(C3CCNCC3)c2-c2ccnc(Oc3ccc4c(c3)OCO4)n2)cc1` are 3190 nM and 8020 nM. On to `O=C1CCc2c(sc3[nH]c(=S)n(-c4cc(C(F)(F)F)cc(C(F)(F)F)c4)c(=O)c23)C1`, for which the GI50 was 248 nM and the TGI stood at 768 nM.

Take `O=c1c2cc(C(F)(F)F)ccc2sc2c(NCCCNCCO)nc3ccccc3c12`: the GI50 is 1570 nM and the TGI stood at 3130 nM. `C=C(C)[C@@H]1CCC=C2CC[C@]3(C)[C@H](CC[C@@H]4[C@@]5(C)CCCNC(C)(C)[C@@H]5CC[C@]43C)[C@H]21`: the GI50 is 1610 nM and the TGI was 3100 nM.

Consider `Nc1ccn(C2CC(F)C(CO)O2)c(=O)n1` (configuration not stated), for which the GI50 is > 100000 nM and the TGI is > 100000 nM. For the molecule `C/C(=C\c1ccn(-c2ccccc2N)n1)[C@@H]1C[C@@H]2O[C@]2(C)CCC[C@H](C)[C@H](O)[C@@H](C)C(=O)C(C)(C)[C@@H](O)CC(=O)O1`, the GI50 was 35.7 nM and the TGI stood at 732 nM. As to `CCC(=O)N1C/C(=C/c2ccc(Cl)cc2)C(=O)/C(=C/c2ccc(Cl)cc2)C1`, the GI50 is 704 nM and the TGI was 2080 nM. As to `COC(=O)c1cc(-c2ccccc2)[nH]c1N/N=C/c1c(Cl)cccc1Cl`, the GI50 was 185 nM. As to `Oc1c(C(Nc2ccccc2Br)c2ccccc2)ccc2cccnc12` (configuration not stated), the GI50 was 1520 nM and the TGI came out at 6120 nM.

Regarding `CCOC(=O)NC1CCc2cc(OC)c(OC)c(OC)c2-c2ccc(OC)c(=O)cc21` (configuration not stated), the GI50 was 548 nM and the TGI is > 100000 nM.
